# From ChEMBL document CHEMBL3885881, “DrugMatrix”
# Species on record: Rattus norvegicus
# Assay: DrugMatrix - Regimen: Daily Repeat
# Type: toxicity, organism-based, Sprague-Dawley
# Design: regimen Daily Repeat, gender Male, age 6-8 weeks
# Conditions: in vivo, po, route oral GAVAGE, […]; for ABSOLUTE BASOPHIL / ABSOLUTE EOSINOPHIL / ABSOLUTE LYMPHOCYTE / ABSOLUTE MONOCYTE / ABSOLUTE SEGMENTED NEUTROPHIL / BASOPHIL / EOSINOPHIL / ERYTHROCYTE COUNT / HEMATOCRIT / HEMOGLOBIN / LEUKOCYTE COUNT / LYMPHOCYTE / MEAN CORPUSCULAR HEMOGLOBIN / MEAN CORPUSCULAR HEMOGLOBIN CONCENTRATION / MEAN CORPUSCULAR VOLUME / MONOCYTE / NEUTROPHIL / NUCLEATED RED BLOOD CELLS / PLATELET COUNT: tissue Blood; for ALANINE AMINOTRANSFERASE / ALBUMIN / ALKALINE PHOSPHATASE / ASPARTATE AMINOTRANSFERASE / BLOOD UREA NITROGEN / CARBON DIOXIDE / CHLORIDE / CHOLESTEROL / CREATINE PHOSPHOKINASE / CREATININE / GLUCOSE / LACTATE DEHYDROGENASE / LIPASE / PHOSPHORUS / POTASSIUM / SODIUM / TOTAL BILIRUBIN / TOTAL PROTEIN / URIC ACID: tissue Plasma
# [1] = 3 mg/kg, 72 h, dose level Low, time 3 day
# [2] = 3 mg/kg, 120 h, dose level Low, time 5 day
# [3] = 250 mg/kg, 72 h, dose level High, time 3 day
# [4] = 250 mg/kg, 120 h, dose level High, time 5 day
smiles,measurement,setting,value
N#Cc1ccc(C(c2ccc(C#N)cc2)n2cncn2)cc1 [LETROZOLE],ABSOLUTE BASOPHIL,[1],0 CELLS/uL
same,ABSOLUTE EOSINOPHIL,[1],184 CELLS/uL
same,ABSOLUTE LYMPHOCYTE,[1],10672.33 CELLS/uL
same,ABSOLUTE MONOCYTE,[1],0 CELLS/uL
same,ABSOLUTE SEGMENTED NEUTROPHIL,[1],1877 CELLS/uL
same,BASOPHIL,[1],0%
same,EOSINOPHIL,[1],0.67%
same,ERYTHROCYTE COUNT,[1],4.51 x10E6/uL
same,HEMATOCRIT,[1],28.03%
same,HEMOGLOBIN,[1],11.33 G/DL
same,LEUKOCYTE COUNT,[1],12.73 x10E3/uL
same,LYMPHOCYTE,[1],88.67%
same,MEAN CORPUSCULAR HEMOGLOBIN,[1],25.07 pg
same,MEAN CORPUSCULAR HEMOGLOBIN CONCENTRATION,[1],40.37 G/DL
same,MEAN CORPUSCULAR VOLUME,[1],62.1 fL
same,MONOCYTE,[1],0%
same,NEUTROPHIL,[1],10.67%
same,NUCLEATED RED BLOOD CELLS,[1],0 /100WBC
same,PLATELET COUNT,[1],541.33 x10E3/uL
same,ALANINE AMINOTRANSFERASE,[1],85.67 u/L
same,ALBUMIN,[1],4.07 G/DL
same,ALKALINE PHOSPHATASE,[1],351.67 u/L
same,ASPARTATE AMINOTRANSFERASE,[1],114.67 u/L
same,BLOOD UREA NITROGEN,[1],15 mg/dL
same,CARBON DIOXIDE,[1],26.67 mmol/L
same,CHLORIDE,[1],105 MEQ/L
same,CHOLESTEROL,[1],72.33 mg/dL
same,CREATINE PHOSPHOKINASE,[1],577.67 u/L
same,CREATININE,[1],0.17 mg/dL
same,GLUCOSE,[1],196.67 mg/dL
same,LACTATE DEHYDROGENASE,[1],171.67 u/L
same,LIPASE,[1],8.33 u/L
same,PHOSPHORUS,[1],13.4 mg/dL
same,POTASSIUM,[1],5.91 MEQ/L
same,SODIUM,[1],144 MEQ/L
same,TOTAL BILIRUBIN,[1],0.2 mg/dL
same,TOTAL PROTEIN,[1],5.4 G/DL
same,URIC ACID,[1],1.37 mg/dL
same,ABSOLUTE BASOPHIL,[2],0 CELLS/uL
same,ABSOLUTE EOSINOPHIL,[2],0 CELLS/uL
same,ABSOLUTE LYMPHOCYTE,[2],13516.33 CELLS/uL
same,ABSOLUTE MONOCYTE,[2],50.67 CELLS/uL
same,ABSOLUTE SEGMENTED NEUTROPHIL,[2],1033 CELLS/uL
same,BASOPHIL,[2],0%
same,EOSINOPHIL,[2],0%
same,ERYTHROCYTE COUNT,[2],5.59 x10E6/uL
same,HEMATOCRIT,[2],35.97%
same,HEMOGLOBIN,[2],14.1 G/DL
same,LEUKOCYTE COUNT,[2],14.6 x10E3/uL
same,LYMPHOCYTE,[2],92.67%
same,MEAN CORPUSCULAR HEMOGLOBIN,[2],25.23 pg
same,MEAN CORPUSCULAR HEMOGLOBIN CONCENTRATION,[2],39.17 G/DL
same,MEAN CORPUSCULAR VOLUME,[2],64.33 fL
same,MONOCYTE,[2],0.33%
same,NEUTROPHIL,[2],7%
same,NUCLEATED RED BLOOD CELLS,[2],0 /100WBC
same,PLATELET COUNT,[2],1165 x10E3/uL
same,ALANINE AMINOTRANSFERASE,[2],55 u/L
same,ALBUMIN,[2],4.23 G/DL
same,ALKALINE PHOSPHATASE,[2],407 u/L
same,ASPARTATE AMINOTRANSFERASE,[2],79.33 u/L
same,BLOOD UREA NITROGEN,[2],18 mg/dL
same,CARBON DIOXIDE,[2],27.67 mmol/L
same,CHLORIDE,[2],103 MEQ/L
same,CHOLESTEROL,[2],69.33 mg/dL
same,CREATINE PHOSPHOKINASE,[2],252.67 u/L
same,CREATININE,[2],0.22 mg/dL
same,GLUCOSE,[2],176 mg/dL
same,LACTATE DEHYDROGENASE,[2],155.33 u/L
same,LIPASE,[2],11.33 u/L
same,PHOSPHORUS,[2],11.3 mg/dL
same,POTASSIUM,[2],6.08 MEQ/L
same,SODIUM,[2],143.2 MEQ/L
same,TOTAL BILIRUBIN,[2],0.2 mg/dL
same,TOTAL PROTEIN,[2],5.8 G/DL
same,URIC ACID,[2],1.3 mg/dL
same,ABSOLUTE BASOPHIL,[3],0 CELLS/uL
same,ABSOLUTE EOSINOPHIL,[3],0 CELLS/uL
same,ABSOLUTE LYMPHOCYTE,[3],16113.33 CELLS/uL
same,ABSOLUTE MONOCYTE,[3],104 CELLS/uL
same,ABSOLUTE SEGMENTED NEUTROPHIL,[3],1216 CELLS/uL
same,BASOPHIL,[3],0%
same,EOSINOPHIL,[3],0%
same,ERYTHROCYTE COUNT,[3],5.67 x10E6/uL
same,HEMATOCRIT,[3],35.07%
same,HEMOGLOBIN,[3],14.07 G/DL
same,LEUKOCYTE COUNT,[3],17.43 x10E3/uL
same,LYMPHOCYTE,[3],92%
same,MEAN CORPUSCULAR HEMOGLOBIN,[3],24.8 pg
same,MEAN CORPUSCULAR HEMOGLOBIN CONCENTRATION,[3],40.1 G/DL
same,MEAN CORPUSCULAR VOLUME,[3],61.83 fL
same,MONOCYTE,[3],0.67%
same,NEUTROPHIL,[3],7.33%
same,NUCLEATED RED BLOOD CELLS,[3],0 /100WBC
same,PLATELET COUNT,[3],1266.33 x10E3/uL
same,ALANINE AMINOTRANSFERASE,[3],69 u/L
same,ALBUMIN,[3],3.97 G/DL
same,ALKALINE PHOSPHATASE,[3],487 u/L
same,ASPARTATE AMINOTRANSFERASE,[3],117 u/L
same,BLOOD UREA NITROGEN,[3],13 mg/dL
same,CARBON DIOXIDE,[3],29 mmol/L
same,CHLORIDE,[3],102.33 MEQ/L
same,CHOLESTEROL,[3],68.33 mg/dL
same,CREATINE PHOSPHOKINASE,[3],365.33 u/L
same,CREATININE,[3],0.24 mg/dL
same,GLUCOSE,[3],140.67 mg/dL
same,LACTATE DEHYDROGENASE,[3],544.67 u/L
same,LIPASE,[3],12.33 u/L
same,PHOSPHORUS,[3],11.13 mg/dL
same,POTASSIUM,[3],5.99 MEQ/L
same,SODIUM,[3],142.27 MEQ/L
same,TOTAL BILIRUBIN,[3],0.23 mg/dL
same,TOTAL PROTEIN,[3],5.47 G/DL
same,URIC ACID,[3],1.4 mg/dL
same,ABSOLUTE BASOPHIL,[4],0 CELLS/uL
same,ABSOLUTE EOSINOPHIL,[4],0 CELLS/uL
same,ABSOLUTE LYMPHOCYTE,[4],11610.33 CELLS/uL
same,ABSOLUTE MONOCYTE,[4],237.67 CELLS/uL
same,ABSOLUTE SEGMENTED NEUTROPHIL,[4],1485.33 CELLS/uL
same,BASOPHIL,[4],0%
same,EOSINOPHIL,[4],0%
same,ERYTHROCYTE COUNT,[4],6.3 x10E6/uL
same,HEMATOCRIT,[4],38.7%
same,HEMOGLOBIN,[4],15.17 G/DL
same,LEUKOCYTE COUNT,[4],13.33 x10E3/uL
same,LYMPHOCYTE,[4],87.33%
same,MEAN CORPUSCULAR HEMOGLOBIN,[4],24.13 pg
same,MEAN CORPUSCULAR HEMOGLOBIN CONCENTRATION,[4],39.23 G/DL
same,MEAN CORPUSCULAR VOLUME,[4],61.5 fL
same,MONOCYTE,[4],1.67%
same,NEUTROPHIL,[4],11%
same,NUCLEATED RED BLOOD CELLS,[4],0 /100WBC
same,PLATELET COUNT,[4],1093.67 x10E3/uL
same,ALANINE AMINOTRANSFERASE,[4],36.67 u/L
same,ALBUMIN,[4],4.27 G/DL
same,ALKALINE PHOSPHATASE,[4],295.33 u/L
same,ASPARTATE AMINOTRANSFERASE,[4],110.67 u/L
same,BLOOD UREA NITROGEN,[4],15.33 mg/dL
same,CARBON DIOXIDE,[4],28.67 mmol/L
same,CHLORIDE,[4],104.67 MEQ/L
same,CHOLESTEROL,[4],55.67 mg/dL
same,CREATINE PHOSPHOKINASE,[4],254 u/L
same,CREATININE,[4],0.21 mg/dL
same,GLUCOSE,[4],151.33 mg/dL
same,LACTATE DEHYDROGENASE,[4],321.67 u/L
same,LIPASE,[4],10.67 u/L
same,PHOSPHORUS,[4],9.9 mg/dL
same,POTASSIUM,[4],4.59 MEQ/L
same,SODIUM,[4],146.27 MEQ/L
same,TOTAL BILIRUBIN,[4],0.1 mg/dL
same,TOTAL PROTEIN,[4],5.77 G/DL
same,URIC ACID,[4],1.13 mg/dL
